Results on 7 compounds are retold here after EP0151110B1 (priority 1983, dated 1985).

The nature of one data set: in vivo. The conditions noted are these: mouse, iv, read-out: LD50** I.v. (intravenous) mg/kg/mouse.
For data set [1] the following is noted: in vivo. An excerpt: • ^* Trypan blue test; Hoppe et al. (1950), 39, 147-151 "Use Of Trypan Blue And Rabbit Eye Tests For Irritation", J. Amer. Pharm. Ass. (Scient. Ed.), the values are approximate threshold values of tissue irritancy. • ^** LD50, i.e. 50% mortality of mice. • ^*** Studies On The Duration Of Local Anaesthesia: Structure/Activity Relationships In A Series Of Homologous Local Anaesthetics, by G. Aberg, et al., Acta pharmacol. et toxicol., 41 (1977) pp. 432-443, Table 1 at p. 435.

The nature of data set [2]: Skin temperature within intracutaneous wheals compared with skin outside the wheals during anesthesia. Type of data set: in vivo, humans. Conditions: for T1 °C Intracutaneous Wheal / °C Difference: HCl-salt; for T1 °C Intracutaneous Wheal: center of wheal, 10 minutes after intracutaneous injection, mean of 6 wheals; for °C Difference: T1 (wheal) minus T2 (controls outside wheal), 10 minutes after injection; for change of temperature over the wheal, in words: Table 4, Conc. 0.25 %. On the procedure:
The means value of 6 wheals for each substance forms the basis for the values. The control values, however, represent the mean value obtained from 4 different sites measured outside the wheals 90 degrees apart and 2 centimeters from the wheal's center.
In the temperature measurements, an Oriel temperature apparatust has been used. This is battery driven and is connected to a detector (diameter, 2,5 mm) and has an accuracy of ± 0.1°C. The temperature of the skin is measured by pressing the detector against the skin with a pressure of 100 grams.
against the skin until a constant temperature is obtained.
In Table 4, T, is the measurement obtained at the center of the wheal, and T2 is the average of four measurements taken 90 degrees apart outside of the wheal and within 2 centimeters of the wheal's center.

In data set [3] the test system is periphera nerve ending of the epidermis. The data set can be described thus: Infiltration anesthesia, intracutaneous wheals on forearms of man (pin-prick). The conditions noted are these: compared among 12 optically active and inactive structures. In kind it is in vivo. On the procedure:
By use of intracutaneous wheals it is possible to measure the analgesic effect of an anesthetic on the periphera nerve ending of the epidermis.
This technique gives information about: • (1) the duration of anesthesia. • (2) Epidermal diffusion. • (3) Vascular effects. [formula]
' Infiltration anesthesia on forearms of man. The test solutions were injected intracutaneously on the dorsum of the forearms of 12 healthy volunteers, 20-25 years old. Three wheals were made on each arm in a rotating system in a double-blind fashion. The local anesthetic effect was tested using a pin-prick technique. the "duration of anesthesia" was defined as the time during which none of six pin-pricks into the wheel was felt. The method had been described by Dhuner et al. (1972). Dhuner, K. G., D. H. Lewis, A. Nyquist, D. Selander & E. Stig: Vascular effects of the isomers of mepivacaine, Acta Anaest. Scand. 1972, Supple. 48, 45-52. • * L=Laevo, R=Racemic, D=Dextro • ** C equals grams per 100 ml of solution. • ^*** New isolated stereoisomers [formula]

The next data set has as its system ulnar volar nerves. Put plainly: Digital nerve blocks in man (finger blockade). Type of data set: in vivo. The conditions noted are these: compared among 12 optically active and inactive structures. The procedure: ^2 Digital nerve blocks in man. The test solutions were injected to block the ulnar volar nerves on the 2nd and 4th fingers of the same volunteers who has participated in the intracutaneous wheal tests described above. The tests were carried out in a double blind fashion in a rotating system, so that each solution was used with equal frequency on each of the blocked fingers. A total of four injections, 1.0 ml per injection, was done in each subject. One week later the procedure was repeated in the same subjects using the remaining test solutions. This method has been described by Dhuner et al. (1972) (for citation see Table 2 footnote 1). To measure the efficacy and duration of the blocks, the individual fingers were pricked rapidly 10 times with a needle algesimeter and the number of painful pricks noted. Each finger was tested every five minutes until complete recovery. The time of complete anesthesia has been called "duration of anesthesia". • ^* i.e. - the time from injection to complete analgesia • ^** i.e. - the number of successful anesthesias of total number of anesthesias performed (no anesthesia is possible if the ulnar volar nerves are not contacted by the anesthetic) • *** new isolated stereoisomers

The conditions of data set [4]: racemate; from Aberg et al., Acta pharmacol. et toxicol. 41 (1977), Table 1 at p. 435; cited from earlier work.
For data set [5] the following is noted: racemate; from Aberg et al., Acta pharmacol. et toxicol. 41 (1977), Table 1 at p. 435; cited from earlier work. This is another data set of the same source.

For the compound `CCN1CCCCC1C(=O)Nc1c(C)cccc1C` (racemic) [compound 2], in the data set “in vivo”, the LD50 was found to be 21 mg/kg. Further, the “Tissue* toxicity limits in %” value in data set [1] was found to be 3.0%.

For the compound `CCCCN1CCCCC1C(=O)Nc1c(C)cccc1C` (racemic) [No. 4, N-n-butylpipecolic acid-2,6-xylidide], in data set [2] (Conc. 0.25 %), the “T1 °C Intracutaneous Wheal” value is 31.5 °C and the “°C Difference” value is −0.6 °C.

Turning to `CCCN1CCCCC1C(=O)Nc1c(C)cccc1C` (racemic) [compound 3], the “Tissue* toxicity limits in %” value in data set [1] was 1.5%.

Take `CCCN1CCCC[C@H]1C(=O)Nc1c(C)cccc1C` [L-N-n-propylpipecolic acid-2,6-xylidide]: in data set [3], the “anesthetic effects, intracutaneous wheal (Table 2), in words” value is “gives the optimal increase of anesthetic effects”. In addition, in data set [1], the “Tissue* toxicity limits in %” value turned out to be 0.75%. Besides, the “anesthetic effects, finger-blockade (Table 3), in words” value in the data set on ulnar volar nerves is “gives the optimal increase of anesthetic effects”. Moreover, in data set [2] (Conc. 0.25 %), the “T1 °C Intracutaneous Wheal” value turned out to be 30.0 °C and the “°C Difference” value was −1.2 °C. In data set [2], the “change of temperature over the wheal, in words” value is recorded as “lowers the temperature over its wheal to approximately the same extent as the combination of lidocaine with adrenaline”.

Regarding `CCN1CCCC[C@@H]1C(=O)Nc1c(C)cccc1C` [R-N-2-ethyl-pipecolic acid-2,6-xylidide], in data set [2] (Conc. 1.0 %), the “T1 °C Intracutaneous Wheal” value came out at 31.2 °C and the “°C Difference” value was “+0.5 °C”.

In the case of `Cc1cccc(C)c1NC(=O)C1CCCCN1C` (racemic) [compound 1], the LD50 in the data set “in vivo” was 40.3 mg/kg. Besides, in data set [1], the “Tissue* toxicity limits in %” value came to 3.5%.

On to `CCCN1CCCCC1C(=O)Nc1c(C)cccc1C` (racemic) [No. 3, N-n-propylpipecolic acid-2,6-xylidide], for which the “solubility in water, in words” value in data set [4] is given as “slightly soluble in water”. Moreover, in data set [2] (Conc. 0.25 %), the “T1 °C Intracutaneous Wheal” value came out at 33.1 °C and the “°C Difference” value is −0.1 °C. The “change of temperature over the wheal, in words” value in data set [2] is given as “practically no change in temperature”. Moreover, in data set [5], the “Tissue toxicity (tissue irritancy), in words” value is listed as “tissue irritating”.
